This note sets out measurements from patent US5716943A, “Phosphinic acid derivatives with metallopeptidase inhibitory activity” (Zambon Group. S.p.A., priority 1995, dated 1998).

In one experiment the target is T1, ACE (Oryctolagus cuniculus, UniProt P12822).
T1 construct: purchased SIGMA; host or cells: rabbit lung
T1 sequence (P12822 34-1310): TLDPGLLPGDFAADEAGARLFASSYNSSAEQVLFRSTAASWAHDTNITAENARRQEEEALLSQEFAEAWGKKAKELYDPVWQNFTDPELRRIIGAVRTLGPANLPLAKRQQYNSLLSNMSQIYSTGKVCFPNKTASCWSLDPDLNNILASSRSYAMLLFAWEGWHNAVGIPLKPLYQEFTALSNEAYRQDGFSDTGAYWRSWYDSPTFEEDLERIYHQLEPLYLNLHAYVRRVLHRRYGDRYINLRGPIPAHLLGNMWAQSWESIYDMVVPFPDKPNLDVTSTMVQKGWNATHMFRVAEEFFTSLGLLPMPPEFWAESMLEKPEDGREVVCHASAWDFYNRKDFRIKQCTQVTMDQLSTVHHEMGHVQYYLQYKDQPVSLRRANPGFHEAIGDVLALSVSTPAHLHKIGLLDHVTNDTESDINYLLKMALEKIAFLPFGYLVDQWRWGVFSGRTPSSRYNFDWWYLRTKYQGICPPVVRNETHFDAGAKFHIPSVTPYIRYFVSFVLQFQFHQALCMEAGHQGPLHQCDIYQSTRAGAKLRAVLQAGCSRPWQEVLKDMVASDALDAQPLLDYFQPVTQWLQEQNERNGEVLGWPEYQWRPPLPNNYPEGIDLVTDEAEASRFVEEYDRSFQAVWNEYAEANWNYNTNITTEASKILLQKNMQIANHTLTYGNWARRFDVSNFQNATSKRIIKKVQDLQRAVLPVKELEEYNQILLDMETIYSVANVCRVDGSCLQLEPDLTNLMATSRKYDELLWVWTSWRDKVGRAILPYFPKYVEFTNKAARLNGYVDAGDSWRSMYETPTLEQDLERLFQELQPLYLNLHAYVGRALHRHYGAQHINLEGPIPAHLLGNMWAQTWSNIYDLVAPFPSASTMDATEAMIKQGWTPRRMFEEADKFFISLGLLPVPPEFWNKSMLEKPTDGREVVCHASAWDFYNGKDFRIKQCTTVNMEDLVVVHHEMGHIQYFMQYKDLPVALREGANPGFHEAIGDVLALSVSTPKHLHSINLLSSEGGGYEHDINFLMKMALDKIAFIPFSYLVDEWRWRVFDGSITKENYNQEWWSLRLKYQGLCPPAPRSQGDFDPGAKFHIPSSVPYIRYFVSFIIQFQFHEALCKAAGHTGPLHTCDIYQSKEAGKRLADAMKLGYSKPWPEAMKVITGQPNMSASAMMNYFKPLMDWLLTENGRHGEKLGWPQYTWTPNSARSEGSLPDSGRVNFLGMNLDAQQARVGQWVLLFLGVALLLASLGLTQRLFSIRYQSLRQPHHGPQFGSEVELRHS
Kind of experiment: ACE-inhibitory activity, FAPGG substrate, absorbance at 340 nm. Format: biochemical. As to conditions: ACE purified by lung rabbit; FAPGG 0.8 mM; 37° C.; compounds of formula I tested as lithium salts. The procedure:
b) ACE-inhibitory activity
50 μM of ACE (250 mU/ml purified by lung rabbit, EC 3.4.15.1 SIGMA) were preincubated with 50 μl of the compound of formula I or of the comparison compound in thermostated cuvettes at 37° C.
The reaction was started by adding furylacryloylphenylalanylglycylglycine 0.8 mM (FAPGG-SIGMA).
Contemporaneously, by using a Beckman DU-50 spectrophotometer provided with a program for calculating delta A/minutes and regression coefficients of the enzyme kinetics curves, the absorbance at 340 10^-9 m was recorded in continuo for 5 minutes.
The percentage of enzyme inhibition in the preparations treated with the compounds of formula I or with the comparison compounds with respect to the untreated preparations was expressed as IC50 (nM) value.
(§1) The compounds of formula I were tested in the form of lithium salts.

The next experiment concerns the target T2, NEP (Rattus norvegicus, UniProt P07861).
T2 construct: evaluated in rat kidney cortex membranes; from tissue; host or cells: kidney cortex membranes of male Sprague-Dawley rats
T2 sequence (P07861 1-750): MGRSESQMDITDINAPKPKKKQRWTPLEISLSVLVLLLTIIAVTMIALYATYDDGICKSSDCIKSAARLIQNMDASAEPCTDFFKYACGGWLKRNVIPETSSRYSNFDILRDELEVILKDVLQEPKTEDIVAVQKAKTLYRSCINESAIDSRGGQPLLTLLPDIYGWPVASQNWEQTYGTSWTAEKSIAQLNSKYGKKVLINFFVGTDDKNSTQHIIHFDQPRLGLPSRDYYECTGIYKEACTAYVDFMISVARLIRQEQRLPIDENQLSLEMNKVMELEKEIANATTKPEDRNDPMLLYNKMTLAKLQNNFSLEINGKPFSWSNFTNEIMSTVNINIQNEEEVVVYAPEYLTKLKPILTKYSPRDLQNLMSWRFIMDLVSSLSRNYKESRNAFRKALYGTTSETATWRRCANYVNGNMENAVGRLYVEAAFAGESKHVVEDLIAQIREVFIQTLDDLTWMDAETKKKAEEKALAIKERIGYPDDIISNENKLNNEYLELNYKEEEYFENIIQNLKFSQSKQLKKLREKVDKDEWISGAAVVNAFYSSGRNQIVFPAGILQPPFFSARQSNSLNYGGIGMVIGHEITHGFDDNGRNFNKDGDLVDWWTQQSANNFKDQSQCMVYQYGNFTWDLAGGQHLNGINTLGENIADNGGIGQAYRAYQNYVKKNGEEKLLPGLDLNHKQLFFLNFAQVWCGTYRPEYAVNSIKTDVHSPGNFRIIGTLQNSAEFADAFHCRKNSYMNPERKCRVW
Kind of experiment: NEP-inhibitory activity in rat kidney cortex membranes, [3H][Leu5]-enkephaline substrate. Format: biochemical. As to conditions: [3H][Leu5]-enkephaline 15 nM, 20 minutes at 30° C., pH 7.4, compounds of formula I tested as lithium salts. As to the method: a) NEP-inhibitory activity
The NEP-inhibitory activity was evaluated in rat kidney cortex membranes prepared according to the procedure described by T. Maeda et al. in Biochim biophys. Acta 1983, 731 (1), 115-120.
By working at 0°-4° C. kidneys were removed from male Sprague-Dawley rats weighing approximately 300 g.
Kidney cortex was carefully dissected, finely minced and suspended in a homogenization buffer (10 mM sodium phosphate pH 7.4 containing 1 mM MgCl2, 30 mM NaCl, 0.02% NaN3) 1:15 weight/volume.
The tissue was then homogenized for 30 seconds by using an Ultra-Turrax homogenizer.
Approximately 10 ml of homogenate were layered over 10 ml of sucrose (41% weight/volume) and centrifuged at 31200 rpm for 30 minutes at 4° C. in a fixed angle rotor.
The membranes were collected from the buffer/sucrose interface, washed twice with 50 mM TRIS/HCl buffer (pH 7.4) and resuspended into the same buffer for storage.
The membranes were stored in small aliquots at -80° C. until use.
The NEP-inhibitory activity was evaluated according to the method described by C. Llorens et al., in Eur. I. Pharmacol., 69, (1981), 113-116, as reported hereinafter.
Aliquots of the membrane suspension prepared as above described (concentration 5 μg/ml of proteins) were preincubated in the presence of an aminopeptidase inhibitor (Bestatin--1 mM) for 10 minutes at 30° C.
[^3 H][Leu^5 ]-enkephaline (15 nM) and buffer TRIS/HCl pH 7.4 (50 mM) were added in order to obtain a final volume of 100 μl.
Incubation (20 minutes at 30° C.) was stopped by adding HCl 0.1 M (100 μl).
The formation of the metabolite [^3 H]Tyr-Gly-Gly was quantified, after separation of the unreacted substrate by chromatography on polystirene columns (Porapak Q), by measuring the relative radioactivity through liquid scintillation.
The percentage of inhibition of the metabolite formation in the membrane preparations treated with the compounds of formula I and with the comparative compounds with respect to the untreated membrane preparations was expressed as IC50 (nM) value.
as §1

What is called IC50 is the midpoint of a concentration-inhibition curve. On to `COCCOCC(CC1(C(=O)N[C@H]2CC[C@@H](C(=O)O)CC2)CCCC1)C(=O)O` (relative stereo) [Candoxatrilat, 3-[1-[(Cis-4-carboxycyclohexyl)carbamoyl]cyclopentyl]-2-(2-methoxyethoxymethyl)-propionic acid, reference compound], for which the “ACE-inhibitory activity IC50 (nM)” value at ACE is “not active”. In addition, the IC50 at NEP was found to be 160 nM.

In the case of `C[C@H](CS)C(=O)N1CCC[C@H]1C(=O)O` [Captopril, reference compound], the “NEP-inhibitory activity IC50 (nM)” value at NEP is listed as “not active”.

Take `CC(C)CC(CP(=O)(O)CNC(=O)OCc1ccccc1)C(=O)N[C@@H](Cc1ccc(-c2ccccc2)cc1)C(=O)O` (stereo partly drawn) [Compound 2, N-[3-[(benzyloxycarbonylaminomethyl)(hydroxy)phosphinyl]-2-isobutyl-propionyl]-(1,1'-biphenyl-4-yl)-L-alanine]: the IC50 at ACE is 6.4 nM; on NEP, 36 nM.

In the case of `O=C(NCP(=O)(O)CC(Cc1ccccc1)C(=O)N[C@@H](Cc1ccc(-c2ccccc2)cc1)C(=O)O)OCc1ccccc1` (stereo partly drawn) [Compound 3, N-[3-[(benzyloxycarbonylaminomethyl)(hydroxy)phosphinyl]-2-benzyl-propionyl]-(1,1'-biphenyl-4-yl)-L-alanine], the results for the IC50 on ACE and on NEP were 30 nM and 252 nM, respectively.

For `O=C(NCP(=O)(O)CC(Cc1cccs1)C(=O)N[C@@H](Cc1ccc(-c2ccccc2)cc1)C(=O)O)OCc1ccccc1` (stereo partly drawn) [Compound 4, N-[3-[(benzyloxycarbonylaminomethyl)(hydroxy)phosphinyl]-2-(2-thienylmethyl)propionyl]-(1,1'-biphenyl-4-yl)-L-alanine], the half-inhibitory concentration (IC50) at ACE stood at 12 nM; on NEP it was 335 nM.

`CC(C)CC(CP(=O)(O)CNC(=O)OCc1ccccc1)C(=O)N[C@@H](Cc1ccc(-c2nccs2)cc1)C(=O)O` (stereo partly drawn) [Compound 5, N-[3-[(benzyloxycarbonylaminomethyl)(hydroxy)phosphinyl]-2-isobutyl-propionyl]-[4-(2-thiazolyl)-phenyl]-L-alanine]: the results for the IC50 at ACE and at NEP were 25 nM and 48.5 nM, respectively.
